This note sets out measurements from patent US7053052B2, “Therapies involving mutated heat shock transcription factor” (priority 1997, dated 2006).

In experiment [1] the test system is human hsp70B promoter-driven chloramphenicol acetyltransferase (CAT) gene. The experiment in a line: hsp70B-CAT reporter gene assay in HeLa-CAT cells. It counts as cell-based. On the procedure: CAT assays were performed using the chromatographic assay of Gorman, C. M. et al., Mol. Cell. Biol., 2:1044–1051 (1982)). DNA replication was assessed by a standard ^3H-thymidine incorporation assay. In most experiments, including all western blot assays, standardization was based on protein content. All protein determinations were made using the Bradford method. In a few experiments involving sorted cells, standardization was based on cell numbers. All experiments were repeated at least twice, and, in most cases, each data point was derived from assays of 3–5 parallel samples.
To find out whether HSF1(−) could function as a negatively acting factor, HeLa-CAT cells containing integrated copies of an hsp70B-chloramphenicol acetyltransferase (CAT) gene were co-transfected with an HSF1(−) and an EFGP-expressing construct. […] To determine whether elevated Hsp levels induced by heat preconditioning are required for development of tolerance measured as an increased rate of recovery from heat-induced translational arrest, cultures co-transfected with EGFP- and HSF1(−)-expressing constructs or transfected with EGFP-expressing construct only (control cultures) were mildly heat-preconditioned (41° C./1 hour) and, 3 hours later, subjected to a 44° C./30 minutes (severe) heat shock. […] Rates of protein synthesis were assessed by pulse-labeling cells with ^3H-leucine. […]
In general terms: Reporter assays use an easily measured gene product as a stand-in for the process of interest.

The test system of experiment [2] is endogenous hsp genes in HeLa-CAT cells. The experiment in a line: Expression of endogenous hsps (anti-hsp western blot, 3H-leucine labeling/fluorography). It counts as cell-based, human. On the procedure: Cells were scraped of dishes and lysed in buffer C. Aliquots containing equal amounts of cell protein as well as prestained molecular weight markers were applied to 8.5% SDS-PAGE gels. Following electrophoresis, proteins were transferred to Immobilon-P Transfer Membranes (Millipore Corp., Bedford, Mass.), and membranes were blocked by incubation with TBS (25 mM Tris-HCl, pH 8.0, 0.136 M NaCl, 2.7 mM KCl) with 2% nonfat dry milk. Appropriate sections of membranes were incubated with anti-HSF1 polyclonal antibody (Baler, R. et al., Mol. Cell. Biol., 13:2486–2496 (1993)), anti-Hsp antibodies (all from StressGen Biotechnologies Corp., Victoria, B C) or anti-actin antibody (Amersham, Arlington Heights, Ill.). Following three washes with TBS, membranes were reblocked and incubated with second antibody (horseradish peroxidase-conjugated anti-mouse or anti-rabbit IgG (Amersham). After several washes in TBS, membranes were developed using the ECL Western Blot Detection Kit (Amersham).
To avoid the apparent problem with low transfection efficiency altogether, the transfection approach was substituted by an infection approach. The mutHSF cDNA (HSF1(+)) was inserted behind a cytomegalovirus promoter flanked by adenoviral sequences in plasmid vector AC CMV pLpA SR (+). Human 293 cells expressing the adenovirus E1A region genes were co-transfected with plasmid vector lacking an inserted foreign gene or plasmid vector containing mutHSF and plasmid JM17 containing the bulk of adenovirus sequences. By recombination of sequences on the two types of plasmids, adenoviral genomes were created that lacked the EIA region (replication-defective) but contained a cytomegalovirus promoter (control virus) or a cytomegalovirus promoter linked to the mutHSF gene and that were packaged into defective virus particles (mutHSF virus)(See Graham and Prevec, 1991, for a description of the methodology used to create the adenovirus vehicles). Viral plaques were isolated and expanded, and the viral genomes were analyzed by restriction enzyme digestion. Infections with viruses were performed at a multiplicity of infection (MOI) of about 5. Three groups of 50% confluent cultures of HeLa-CAT cells were set up. The first group was infected with mutHSF virus (Ade-HSF1(+)), the second group with control virus (Ade), and the third group received no virus. The three groups of cultures were then incubated for 15, 24 and 36 hours, respectively, and were subsequently harvested. Extracts were prepared as before.
Even synthesis of the typically less inducible hsps such as hsp73 (also known as hsc70) and hsp60 was enhanced. […] The hsp90 antibody used may have detected both the inducible and constitutive forms of hsp90, masking a more dramatic induction of the inducible form. […]

[3] abbreviates: 15, 24, 36 hours after infection.

Entries after “also recorded” stand apart in the source; their conditions may differ.

As for human HSF1d202–316 [HSF1(+)], in experiment [1] (no heat shock, listed as mutHSF), the “activation of hsp70B-CAT genes in the absence of stress” value is “equally as well as or better than endogenous HSF1 activated by a moderately severe heat shock; also recorded: strongly activated”. In experiment [2] (setting [3]), the “Hsp90 levels (western blot)” value was “clearly increased”; the “expression of hsp72 and hsp27 (western blot)” value was “drastically increased”; the “synthesis of hsp73 and hsp60 (western blot)” value was “enhanced”.
As for human HSF1d453–523 [HSF1(−)], the “heat-induced hsp70B-CAT reporter expression” value in experiment [1] (41° C./1 hour heat shock, FACS-isolated cells) is reported as “severely inhibited”. Further, the “heat-induced Hsp accumulation (anti-Hsp72 western blot)” value in experiment [2] (41° C./1 hour heat shock) is reported as “greatly reduced”.
